Test in all cases: biochemical
Holding throughout (type): biochemical

The target in assay [1] is T1, 382 unique human kinases (Homo sapiens, UniProt Q99683).
T1 construct: purchased Reaction Biology (HotSpot contract assay)
T1 sequence (Q99683 1-1374): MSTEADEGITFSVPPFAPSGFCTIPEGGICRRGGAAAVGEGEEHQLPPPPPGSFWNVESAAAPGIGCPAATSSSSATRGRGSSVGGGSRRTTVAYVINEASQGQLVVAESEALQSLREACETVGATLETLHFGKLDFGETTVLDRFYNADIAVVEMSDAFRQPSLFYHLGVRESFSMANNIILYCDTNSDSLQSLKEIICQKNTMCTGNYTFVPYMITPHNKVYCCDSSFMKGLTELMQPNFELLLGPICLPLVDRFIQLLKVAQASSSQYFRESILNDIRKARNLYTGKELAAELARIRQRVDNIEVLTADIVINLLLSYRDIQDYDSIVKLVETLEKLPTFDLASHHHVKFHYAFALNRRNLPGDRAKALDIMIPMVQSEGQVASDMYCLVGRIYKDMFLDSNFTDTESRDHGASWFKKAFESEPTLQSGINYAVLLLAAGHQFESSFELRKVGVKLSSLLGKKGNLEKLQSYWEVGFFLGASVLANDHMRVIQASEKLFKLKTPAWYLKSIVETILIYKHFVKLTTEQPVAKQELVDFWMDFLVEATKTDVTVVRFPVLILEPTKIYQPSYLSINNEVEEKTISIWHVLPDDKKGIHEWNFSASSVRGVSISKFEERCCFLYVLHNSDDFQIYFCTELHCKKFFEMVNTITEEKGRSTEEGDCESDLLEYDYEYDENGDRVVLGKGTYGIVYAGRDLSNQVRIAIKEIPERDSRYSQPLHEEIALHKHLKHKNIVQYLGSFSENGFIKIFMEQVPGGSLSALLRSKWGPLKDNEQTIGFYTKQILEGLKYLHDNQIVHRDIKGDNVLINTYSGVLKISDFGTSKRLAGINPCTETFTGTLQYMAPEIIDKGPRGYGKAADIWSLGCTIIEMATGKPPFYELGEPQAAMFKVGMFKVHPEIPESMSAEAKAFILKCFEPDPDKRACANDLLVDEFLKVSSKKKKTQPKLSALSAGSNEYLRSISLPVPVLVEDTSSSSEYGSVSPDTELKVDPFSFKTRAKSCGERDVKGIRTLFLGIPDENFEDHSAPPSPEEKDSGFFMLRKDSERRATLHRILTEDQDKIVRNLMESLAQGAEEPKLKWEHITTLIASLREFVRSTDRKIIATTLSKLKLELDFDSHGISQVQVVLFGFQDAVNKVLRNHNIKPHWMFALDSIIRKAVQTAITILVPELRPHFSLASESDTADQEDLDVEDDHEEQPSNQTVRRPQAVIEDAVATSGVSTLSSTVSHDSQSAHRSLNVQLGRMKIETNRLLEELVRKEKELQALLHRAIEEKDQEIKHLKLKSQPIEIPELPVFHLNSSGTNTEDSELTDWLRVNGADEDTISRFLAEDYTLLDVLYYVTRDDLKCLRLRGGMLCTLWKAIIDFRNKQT
To be noted: ASK1/MAP3K5, compound at 10 uM, duplicate values; for remaining activity at 10 µM: read-out: % Enzyme Activity (relative to DMSO controls).

For assay [2], the target named is T2, 382 unique human kinases (Homo sapiens, UniProt Q00535).
T2 construct: purchased Reaction Biology (HotSpot contract assay)
T2 sequence (Q00535 whole entry): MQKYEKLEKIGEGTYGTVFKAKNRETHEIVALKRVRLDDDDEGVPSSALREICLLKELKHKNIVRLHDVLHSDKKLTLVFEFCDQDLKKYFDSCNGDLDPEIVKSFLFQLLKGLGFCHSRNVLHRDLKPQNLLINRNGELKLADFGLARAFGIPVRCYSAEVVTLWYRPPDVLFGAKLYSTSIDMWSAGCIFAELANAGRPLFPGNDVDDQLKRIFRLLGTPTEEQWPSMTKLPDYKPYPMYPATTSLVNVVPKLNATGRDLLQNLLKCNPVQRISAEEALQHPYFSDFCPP
The following applies: for remaining activity at 10 µM: read-out: % Enzyme Activity (relative to DMSO controls).

The target of assay [3] is T3, 382 unique human kinases (Homo sapiens, UniProt Q02763, P883A).
T3 construct: purchased Reaction Biology (HotSpot contract assay)
T3 sequence (Q02763 23-1124 P883A): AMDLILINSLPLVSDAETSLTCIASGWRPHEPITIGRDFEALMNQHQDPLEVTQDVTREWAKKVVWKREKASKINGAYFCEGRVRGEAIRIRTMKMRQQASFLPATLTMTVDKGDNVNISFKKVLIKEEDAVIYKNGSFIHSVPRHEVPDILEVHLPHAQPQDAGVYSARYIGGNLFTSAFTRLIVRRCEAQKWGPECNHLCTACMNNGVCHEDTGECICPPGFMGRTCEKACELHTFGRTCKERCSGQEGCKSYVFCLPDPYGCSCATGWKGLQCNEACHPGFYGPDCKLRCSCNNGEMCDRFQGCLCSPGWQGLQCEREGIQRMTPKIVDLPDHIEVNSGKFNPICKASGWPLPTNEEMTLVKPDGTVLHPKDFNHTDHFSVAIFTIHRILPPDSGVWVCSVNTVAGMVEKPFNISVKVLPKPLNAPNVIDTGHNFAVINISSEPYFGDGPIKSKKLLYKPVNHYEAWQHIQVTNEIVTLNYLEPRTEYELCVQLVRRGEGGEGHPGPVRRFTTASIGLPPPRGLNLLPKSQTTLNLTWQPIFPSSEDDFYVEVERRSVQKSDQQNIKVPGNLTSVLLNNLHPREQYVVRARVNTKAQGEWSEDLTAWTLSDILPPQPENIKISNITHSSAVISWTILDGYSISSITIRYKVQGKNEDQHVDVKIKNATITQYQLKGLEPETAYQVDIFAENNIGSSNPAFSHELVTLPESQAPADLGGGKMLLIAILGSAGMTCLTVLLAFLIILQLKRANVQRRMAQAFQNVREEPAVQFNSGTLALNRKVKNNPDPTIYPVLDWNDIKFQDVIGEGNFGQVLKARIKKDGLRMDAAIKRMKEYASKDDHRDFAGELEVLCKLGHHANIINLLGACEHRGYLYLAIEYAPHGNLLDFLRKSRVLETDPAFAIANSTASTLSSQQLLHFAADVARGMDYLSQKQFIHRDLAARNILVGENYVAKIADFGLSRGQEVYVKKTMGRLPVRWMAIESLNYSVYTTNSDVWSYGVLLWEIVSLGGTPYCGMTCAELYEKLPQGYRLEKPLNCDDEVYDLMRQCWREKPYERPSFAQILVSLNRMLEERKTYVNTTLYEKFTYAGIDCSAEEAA
The following applies: TIE2 (P883A), 10 uM; for remaining activity at 10 µM: read-out: % Enzyme Activity (relative to DMSO controls).

Assay [4] addresses T4, 382 unique human kinases (Homo sapiens, UniProt Q9UF33).
T4 construct: purchased Reaction Biology (HotSpot contract assay)
T4 sequence (Q9UF33 23-1036): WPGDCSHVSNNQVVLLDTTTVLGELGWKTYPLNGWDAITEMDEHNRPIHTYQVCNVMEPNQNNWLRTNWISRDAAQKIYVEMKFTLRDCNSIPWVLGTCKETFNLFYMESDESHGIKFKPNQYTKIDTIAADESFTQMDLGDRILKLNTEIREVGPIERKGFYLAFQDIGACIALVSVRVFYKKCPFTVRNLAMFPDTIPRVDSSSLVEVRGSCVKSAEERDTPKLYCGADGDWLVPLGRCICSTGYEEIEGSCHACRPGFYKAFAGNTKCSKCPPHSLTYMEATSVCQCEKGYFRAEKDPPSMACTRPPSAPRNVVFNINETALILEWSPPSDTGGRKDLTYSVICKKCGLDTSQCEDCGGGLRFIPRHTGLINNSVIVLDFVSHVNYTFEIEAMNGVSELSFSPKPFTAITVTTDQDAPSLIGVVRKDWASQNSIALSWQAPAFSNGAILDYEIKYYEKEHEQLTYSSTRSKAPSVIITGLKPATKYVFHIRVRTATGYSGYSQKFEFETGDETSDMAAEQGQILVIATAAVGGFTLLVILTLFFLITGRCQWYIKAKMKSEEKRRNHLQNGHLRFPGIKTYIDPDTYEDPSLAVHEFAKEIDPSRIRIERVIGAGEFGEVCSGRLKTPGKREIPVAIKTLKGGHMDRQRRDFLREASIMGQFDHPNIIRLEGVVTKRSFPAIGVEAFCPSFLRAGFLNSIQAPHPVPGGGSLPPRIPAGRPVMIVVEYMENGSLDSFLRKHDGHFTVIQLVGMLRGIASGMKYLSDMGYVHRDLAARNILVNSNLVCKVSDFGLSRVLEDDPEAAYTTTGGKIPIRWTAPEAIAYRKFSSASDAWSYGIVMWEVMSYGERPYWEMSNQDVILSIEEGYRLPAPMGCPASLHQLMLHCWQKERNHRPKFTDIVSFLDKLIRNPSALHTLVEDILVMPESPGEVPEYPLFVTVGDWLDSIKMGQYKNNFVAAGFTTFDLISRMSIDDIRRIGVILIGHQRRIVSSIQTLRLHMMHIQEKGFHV
The following applies: kinase EPHA6, compound 10 uM; for remaining activity at 10 µM: read-out: % Enzyme Activity (relative to DMSO controls).

The target in assay [5] is T5, 382 unique human kinases (Homo sapiens, UniProt P34947).
T5 construct: purchased Reaction Biology (HotSpot contract assay)
T5 sequence (P34947 whole entry): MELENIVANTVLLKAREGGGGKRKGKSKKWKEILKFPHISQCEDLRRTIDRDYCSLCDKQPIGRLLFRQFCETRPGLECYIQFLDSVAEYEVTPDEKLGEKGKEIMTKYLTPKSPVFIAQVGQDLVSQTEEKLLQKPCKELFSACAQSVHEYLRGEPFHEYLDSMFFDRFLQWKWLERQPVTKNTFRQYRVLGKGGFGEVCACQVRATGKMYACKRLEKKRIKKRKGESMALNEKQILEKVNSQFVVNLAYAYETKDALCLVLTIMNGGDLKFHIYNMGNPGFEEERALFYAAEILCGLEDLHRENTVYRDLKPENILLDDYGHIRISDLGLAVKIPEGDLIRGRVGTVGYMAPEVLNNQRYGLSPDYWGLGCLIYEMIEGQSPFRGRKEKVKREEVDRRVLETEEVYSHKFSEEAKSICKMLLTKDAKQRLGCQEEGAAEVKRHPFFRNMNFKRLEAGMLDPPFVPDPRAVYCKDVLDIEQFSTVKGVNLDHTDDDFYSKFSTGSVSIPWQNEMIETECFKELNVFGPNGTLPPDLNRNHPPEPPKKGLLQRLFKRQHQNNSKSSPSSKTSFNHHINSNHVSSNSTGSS
The following applies: GRK5, 10 uM; for remaining activity at 10 µM: read-out: % Enzyme Activity (relative to DMSO controls).

Assay [6] addresses T6, 382 unique human kinases (Homo sapiens, UniProt P68400).
T6 construct: purchased Reaction Biology (HotSpot contract assay)
The following applies: CK2a, 10 uM; for remaining activity at 10 µM: read-out: % Enzyme Activity (relative to DMSO controls).

The target of assay [7] is T7, 382 unique human kinases (Homo sapiens, UniProt P41279).
T7 construct: purchased Reaction Biology (HotSpot contract assay)
T7 sequence (P41279 whole entry): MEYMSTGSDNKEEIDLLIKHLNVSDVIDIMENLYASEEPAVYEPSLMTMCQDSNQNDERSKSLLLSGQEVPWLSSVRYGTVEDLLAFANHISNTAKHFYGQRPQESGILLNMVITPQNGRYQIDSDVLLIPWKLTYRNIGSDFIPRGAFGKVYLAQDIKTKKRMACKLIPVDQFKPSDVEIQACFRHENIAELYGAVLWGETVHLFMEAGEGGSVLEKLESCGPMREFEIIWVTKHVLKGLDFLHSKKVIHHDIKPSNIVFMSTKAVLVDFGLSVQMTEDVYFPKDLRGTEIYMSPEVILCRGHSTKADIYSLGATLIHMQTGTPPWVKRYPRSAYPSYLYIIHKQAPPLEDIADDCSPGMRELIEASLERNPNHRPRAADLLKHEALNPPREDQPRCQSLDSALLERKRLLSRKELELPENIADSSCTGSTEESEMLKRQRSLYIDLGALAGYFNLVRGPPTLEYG
The following applies: COT1/MAP3K8, 10 uM; for remaining activity at 10 µM: read-out: % Enzyme Activity (relative to DMSO controls).

The target in assay [8] is T8, 382 unique human kinases (Homo sapiens, UniProt P08581, T992I).
T8 construct: purchased Reaction Biology (HotSpot contract assay)
To be noted: c-MET (T992I), 10 uM; for remaining activity at 10 µM: read-out: % Enzyme Activity (relative to DMSO controls).

Setting [9] is: kinase CDK5/p25, compound 10 uM.

Read-outs that look alike come from different tables or passages of the source.

These results are taken from PMC8550792, “Evolution of kinase polypharmacology across HSP90 drug discovery” (Cell Chemical Biology, 2021).

T6 sequence (P68400 whole entry): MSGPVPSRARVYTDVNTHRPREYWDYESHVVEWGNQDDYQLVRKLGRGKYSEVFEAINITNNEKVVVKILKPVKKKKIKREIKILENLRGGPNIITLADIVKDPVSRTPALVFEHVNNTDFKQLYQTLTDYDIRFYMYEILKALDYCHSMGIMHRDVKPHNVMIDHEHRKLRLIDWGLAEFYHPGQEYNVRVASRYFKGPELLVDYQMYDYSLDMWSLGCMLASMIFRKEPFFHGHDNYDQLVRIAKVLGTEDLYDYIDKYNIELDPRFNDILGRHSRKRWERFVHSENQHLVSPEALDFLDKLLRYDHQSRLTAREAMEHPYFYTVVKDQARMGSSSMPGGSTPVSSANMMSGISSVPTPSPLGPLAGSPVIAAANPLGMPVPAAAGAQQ

`CC(C)c1cc(-c2n[nH]c(=O)n2-c2ccc3c(ccn3C)c2)c(O)cc1O` [Ganetespib (STA9090)]: the remaining activity at 10 µM was determined as 110% at 382 unique human kinases [1]; 70.1% at 382 unique human kinases [2] (CDK5/p35, 10 uM); 80.9% at 382 unique human kinases [2] (setting [9]); 74.5% at 382 unique human kinases [3]; 91% at 382 unique human kinases [4].

For the molecule `CC(C)c1cc(-c2n[nH]c(=O)n2-c2ccc3c(ccn3C)c2)c(O)cc1O` [Ganetespib], the remaining activity at 10 µM at 382 unique human kinases [5] is 96%; on 382 unique human kinases [6], 101%; at 382 unique human kinases [7] it was 116%; at 382 unique human kinases [8] it was 95.6%.

Turning to `CCNC(=O)c1noc(-c2cc(C(C)C)c(O)cc2O)c1-c1ccc(CN2CCOCC2)cc1` [Luminespib (AUY-922)], the “% Enzyme Activity (relative to DMSO controls)” value is listed as 105.53% at 382 unique human kinases [1]; 102.70% on 382 unique human kinases [2] (CDK5/p35, 10 uM); 102.12% on 382 unique human kinases [2] (setting [9]); 100.72% at 382 unique human kinases [3]; 91.89% on 382 unique human kinases [4]. Also, the remaining activity at 10 µM on 382 unique human kinases [1] turned out to be 106%; at 382 unique human kinases [2] (CDK5/p35, 10 uM) it was 103%; at 382 unique human kinases [2] (setting [9]), 102%; at 382 unique human kinases [3], 104%; on 382 unique human kinases [4], 92%.

On to `CCNC(=O)c1noc(-c2cc(C(C)C)c(O)cc2O)c1-c1ccc(CN2CCOCC2)cc1` [Luminespib], for which the “% Enzyme Activity (relative to DMSO controls)” value is 101.05% at 382 unique human kinases [5], 112.96% on 382 unique human kinases [6], 93.56% at 382 unique human kinases [7] and 90.73% at 382 unique human kinases [8]. In addition, the remaining activity at 10 µM at 382 unique human kinases [5] is 102%; on 382 unique human kinases [6], 117%; on 382 unique human kinases [7], 95.4%; at 382 unique human kinases [8], 91.3%.
